# Assay results published in PubChem BioAssay (NCI).
#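 All cell lines were grown in 96-well plates and treated with compound for 48 hours. TGI: total growth inhibition.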
# How the values were obtained:
# Assay in all cases: NCI-60 cell line screen, 48 h
# A498 renal = system: A498 renal
# HCC-2998 colon = system: HCC-2998 colon
# HCT-15 colon = system: HCT-15 colon
# HOP-62 NSCLC = system: HOP-62 NSCLC
# HT29 colon = system: HT29 colon
# IGROV1 ovarian = system: IGROV1 ovarian
# M14 melanoma = system: M14 melanoma
# MALME-3M melanoma = system: MALME-3M melanoma
# MCF7 breast = system: MCF7 breast
# MDA-MB-231 breast = system: MDA-MB-231 breast
# NCI-H522 lung = system: NCI-H522 lung
# OVCAR-5 ovarian = system: OVCAR-5 ovarian
# OVCAR-8 ovarian = system: OVCAR-8 ovarian
# SF-268 CNS = system: SF-268 CNS
# SR leukemia = system: SR leukemia
# U251 CNS = system: U251 CNS
# UACC-257 melanoma = system: UACC-257 melanoma
# UACC-62 melanoma = system: UACC-62 melanoma
# UO-31 renal = system: UO-31 renal
Structure (SMILES),TGI (A498 renal),TGI (HCC-2998 colon),TGI (HCT-15 colon),TGI (HOP-62 NSCLC),TGI (HT29 colon),TGI (IGROV1 ovarian),TGI (M14 melanoma),TGI (MALME-3M melanoma),TGI (MCF7 breast),TGI (MDA-MB-231 breast),TGI (NCI-H522 lung),TGI (OVCAR-5 ovarian),TGI (OVCAR-8 ovarian),TGI (SF-268 CNS),TGI (SR leukemia),TGI (U251 CNS),TGI (UACC-257 melanoma),TGI (UACC-62 melanoma),TGI (UO-31 renal)
CCN(CC)c1ccc(/C=C/C(=O)c2cc(C(C)(C)C)c(O)c(C(C)(C)C)c2)cc1,> 100 µM,37 µM,> 100 µM,> 100 µM,9.52 µM,> 100 µM,> 93.9 µM,> 100 µM,> 100 µM,48.1 µM,10.2 µM,> 44.8 µM,> 100 µM,> 52.9 µM,> 24.5 µM,11.9 µM,> 100 µM,> 100 µM,> 100 µM
ONC1=Nc2ccccc2C(=S)N2CSCC12 (stereo not given),> 100 µM,> 100 µM,> 100 µM,> 100 µM,> 100 µM,> 100 µM,> 100 µM,> 100 µM,> 100 µM,> 100 µM,> 100 µM,> 100 µM,> 100 µM,> 100 µM,89 µM,> 100 µM,> 100 µM,> 100 µM,> 100 µM
CCCCCCCCCCCCCCCCCCNc1nc(=O)n(C2CC(O)C(COP(=O)(O)OCC3OC(n4ccc(N)nc4=O)C(O)C3O)O2)cc1F (stereo not given),> 100 µM,> 100 µM,38 µM,> 100 µM,29.2 µM,> 100 µM,> 100 µM,> 100 µM,> 100 µM,72.5 µM,65.3 µM,> 100 µM,23 µM,> 100 µM,> 100 µM,> 100 µM,> 100 µM,> 100 µM,> 100 µM
O=c1[nH]c(=O)n(C2CC(O)C(CO)O2)c2nc3ccc4cc5ccccc5cc4c3nc12 (stereo not given),> 100 µM,> 100 µM,> 100 µM,> 100 µM,> 100 µM,> 100 µM,> 100 µM,> 100 µM,> 100 µM,> 100 µM,> 100 µM,> 100 µM,> 100 µM,> 100 µM,> 100 µM,> 100 µM,> 100 µM,> 100 µM,> 100 µM
CSc1nc2c(c(N3CCOCC3)n1)C(O)n1c(nc3ccccc31)S2 (stereo not given),> 100 µM,> 100 µM,> 100 µM,> 100 µM,> 100 µM,> 100 µM,> 100 µM,> 100 µM,> 100 µM,> 100 µM,> 100 µM,> 100 µM,> 100 µM,> 100 µM,> 100 µM,> 100 µM,> 100 µM,> 100 µM,> 100 µM
O=c1[nH]nc(-c2ccccc2)n1/N=C/c1ccccc1Cl,> 100 µM,> 100 µM,> 100 µM,> 100 µM,> 100 µM,> 100 µM,> 100 µM,86.4 µM,> 100 µM,> 100 µM,43.9 µM,> 100 µM,> 100 µM,> 100 µM,85.6 µM,> 100 µM,> 100 µM,46.5 µM,> 100 µM
CCN(CC)C1C(=O)NC1C#Cc1ccccc1 (stereo not given),> 100 µM,> 100 µM,> 100 µM,> 100 µM,> 100 µM,> 100 µM,> 100 µM,> 100 µM,> 100 µM,> 100 µM,> 100 µM,> 100 µM,> 100 µM,> 100 µM,> 100 µM,> 100 µM,> 100 µM,> 100 µM,> 100 µM
CSc1nc(C)c(CCOC(C)=O)c(Cl)n1,> 100 µM,> 100 µM,> 100 µM,> 100 µM,> 100 µM,> 100 µM,> 100 µM,> 100 µM,> 100 µM,> 100 µM,> 100 µM,> 100 µM,> 100 µM,> 100 µM,> 100 µM,> 100 µM,> 100 µM,> 100 µM,> 100 µM
COC(=O)C1Cc2ccc3c(c2C1=O)CCCC3 (stereo not given),> 100 µM,> 100 µM,> 100 µM,> 100 µM,> 100 µM,> 100 µM,> 100 µM,> 100 µM,> 100 µM,> 100 µM,> 100 µM,> 100 µM,> 100 µM,> 100 µM,82.9 µM,> 100 µM,> 100 µM,> 100 µM,> 100 µM
O=C(CCc1ccccc1)n1cccc1CO,> 100 µM,> 100 µM,> 100 µM,> 100 µM,> 100 µM,> 100 µM,> 100 µM,> 100 µM,> 100 µM,> 100 µM,> 100 µM,> 100 µM,> 100 µM,> 100 µM,> 100 µM,> 100 µM,> 100 µM,> 100 µM,> 100 µM
